Measurements as given in patent EP4778929A1, “NOVEL TYPE I TOPOISOMERASE INHIBITOR, AND PREPARATION METHOD THEREFOR AND USE THEREOF” (priority 2023, dated 2025).

Columns and labels:
HCT116 cells = experiment: Inhibition of cell proliferation by CTG (CellTiter-Glo) luminescence assay; assay type: cell-based; settings: Homo sapiens, HCT-116; 72 h incubation, CellTiter-Glo; read-out: HCT116, IC50
Excerpt: Test Example 2. Determination of Compound-Mediated Inhibition of Cell Proliferation by CTG (CellTiter-Glo) Luminescence Assay
Principle: The Promega CellTiter-Glo™ luciferase reagent was used. Luciferase consumes ATP to generate light; metabolically active cells continuously produce ATP through respiration and other processes. After adding an equal volume of CellTiter-Glo™ reagent to the culture medium, the resulting luminescence is directly proportional to the ATP content, which in turn correlates with the number of viable cells. Thus, the assay quantifies compound-induced suppression of cell proliferation.
Experimental Procedure: HCT116 cells (ATCC) were revived in complete medium (McCoy's 5a + 10 % FBS). After two passages, exponentially growing cells were harvested, counted, and resuspended to the appropriate density. A 100 µL aliquot of cell suspension (2 000 cells per well) was seeded into 96-well plates and incubated overnight (37 °C, 5 % CO2, 100 % relative humidity). Test compounds were dissolved in DMSO to prepare 10 mM stock solutions and serially diluted 1:3 in DMSO to generate nine concentration steps. Each DMSO solution was further diluted 200-fold into medium; 25 µL of the resulting solutions were added to the cell plates (final DMSO concentration […]). After 72 h incubation (37 °C, 5 % CO2), 50 µL of CellTiter-Glo reagent was added per well. Plates were shaken gently, incubated for 30 min at room temperature in the dark, and luminescence was read on an EnVision multimode reader. Percent inhibition was calculated as: Inhibition % = (1−As/Ac) × 100, [formula] where As = signal from compound-treated wells and Ac = signal from DMSO-only control wells. Concentration-response data were fitted in Excel with the XLfit add-in using the four-parameter logistic equation: Y = Bottom + (Top−Bottom)/[1+((IC50/X))^(∧)HillSlope], [formula] to derive the IC50 value for each compound. Table 2. IC50 of compounds

[1] = Pharmacokinetic study in mice, plasma concentrations by LC-MS/MS; settings: mouse, in vivo
Method: Test Example 3. Pharmacokinetic Study for Determining Compound Concentrations in Mice by LC-MS/MS
Principle: LC-MS/MS is used to quantify the plasma concentrations of the test article at successive time points, generating an in-vivo pharmacokinetic profile.
Procedure: The test compound was dissolved in DMSO to prepare a 10 mg/mL stock solution. This stock was further diluted to 1 mg/mL with a vehicle consisting of 10 % DMSO + 10 % Solutol HS-15 + 80 % saline. Male CD-1 mice (JH Laboratory Animal Co., LTD) were employed; six animals were assigned per compound group. […] Serial blood samples (~50 µL whole blood, K2EDTA anticoagulant) were collected at 0.083, 0.25, 0.5, 1, 2, 4, 8 and 24 h (three mice per time point in a crossover design). Blood was centrifuged at 6 000 g for 5 min at 4 °C; plasma was harvested and stored at -70 °C until analysis. Plasma drug concentrations were determined by LC-MS/MS.
Calibration Curve and QC Preparation: Working solutions were prepared by dilution with MeOH:H2O (1:1). For each calibration or QC level, 3 µL of working solution was spiked into 57 µL of blank mouse plasma.
Sample Processing: To 30 µL of plasma was added 200 µL of methanol containing the internal standard (propranolol, 40 ng mL^-1). After vortex-mixing for 1 min, the mixture was centrifuged at 12 000 rpm for 10 min. A 100 µL aliquot of the supernatant was transferred to a clean plate for injection.
Pharmacokinetic Analysis: Concentration-time data were analyzed with WinNonlin 8.2 using a non-compartmental approach to derive PK parameters including Cmax, Tmax, AUC and terminal elimination half-life (t1/2). AUC was calculated by the linear-up/log-down trapezoidal method. Table 3. Pk parameters of compounds

SMILES	IC50 (HCT116 cells)	also measured
CC[C@@]1(O)C(=O)OCc2c1cc1n(c2=O)Cc2c-1c(=O)c1cc(F)c([C@H](O)C(F)(F)F)cc1n2C1CCCC1 (single isomer, unassigned) [Example 347]	< 20 nM	
CC[C@@]1(O)C(=O)OCc2c1cc1n(c2=O)Cc2c-1nc1cc(F)c(C)c3c1c2[C@@H](NC(=O)CO)CC3 [DXd]		AUC(0-t) at 24 h ([1]; iv, 1 mg/kg): 154 ng·h/mL; Cmax ([1]; iv, 1 mg/kg): 455 ng/mL; clearance ([1]; iv, 1 mg/kg): 108 mL/min/kg; half-life ([1]; iv, 1 mg/kg): 9.3 min; AUC(0-t) at 24 h ([1]; po, 10 mg/kg): 4.32 ng·h/mL; Cmax ([1]; po, 10 mg/kg): 6.99 ng/mL; Tmax ([1]; po, 10 mg/kg): 19.8 min; half-life ([1]; po, 10 mg/kg): 23.4 min
CCN1CC[C@@H](n2c3c(c(=O)c4cc(F)ccc42)-c2cc4c(c(=O)n2C3)COC(=O)[C@]4(O)CC)C1 [Example 251, (S)-4-ethyl-8-fluoro-4-hydroxy-11-((R)-1-ethylpyrrolidin-3-yl)-1,12-dihydro-14H-pyrano[3',4':6,7]indolizino[2,1-b] quinoline-3,6,14(4H,11H)-trione]	< 20 nM	
CC[C@@]1(O)C(=O)OCc2c1cc1n(c2=O)Cc2c-1c(=O)c1cc(F)ccc1n2[C@@H]1CCN(C2CC(C)(C)C2)C1 [Example 254, (S)-4-ethyl-8-fluoro-4-hydroxy-11-((R)-1-(3,3-dimethylcyclobutyl)pyrrolidin-3-yl)-1,12-dihydro-14H-pyrano[3',4':6,7]indolizino[2,1-b]quinoline-3,6,14(4H,11H)-trione]	< 20 nM	
CC[C@@]1(O)C(=O)OCc2c1cc1n(c2=O)Cc2c-1c(=O)c1cc(F)ccc1n2[C@@H]1CCN(C2CC(F)(F)C2)C1 [Example 255, (S)-4-ethyl-8-fluoro-4-hydroxy-11-((R)-1-(3,3-difluorocyclobutyl)pyrrolidin-3-yl)-1,12-dihydro-14H-pyrano[3',4':6,7]indolizino[2,1-b]quinoline-3,6,14(4H,11H)-trione]	< 20 nM	
CCCN1CC[C@@H](n2c3c(c(=O)c4cc(F)ccc42)-c2cc4c(c(=O)n2C3)COC(=O)[C@]4(O)CC)C1 [Example 258, (S)-4-ethyl-8-fluoro-4-hydroxy-11-((R)-1-n-propylpyrrolidin-3-yl)-1,12-dihydro-14H-pyrano[3',4':6,7]indolizino[2,1-b] quinoline-3,6,14(4H,11H)-trione]	< 20 nM	
CC[C@@]1(O)C(=O)OCc2c1cc1n(c2=O)Cc2c-1c(=O)c1cc(F)ccc1n2[C@@H]1CCN(CC(C)C)C1 [Example 260, (S)-4-ethyl-8-fluoro-4-hydroxy-11-((R)-1-isobutylpyrrolidin-3-yl)-1H-pyrano[3',4':6,7]indolizino[2,1-b]quinoline-3,6,14 (4H,11H,12H)-trione]	< 20 nM	
CCC(CC)N1CC[C@@H](n2c3c(c(=O)c4cc(F)ccc42)-c2cc4c(c(=O)n2C3)COC(=O)[C@]4(O)CC)C1 [Example 261, (S)-4-ethyl-8-fluoro-4-hydroxy-11-((R)-1-(pentan-3-yl)pyrrolidin-3-yl)-1H-pyrano[3,4:6,7]indolizino[2,1-b]quinoline-3,6,14 (4H,11H,12H)-trione]	< 20 nM	
CC[C@@]1(O)C(=O)OCc2c1cc1n(c2=O)Cc2c-1c(=O)c1cc(F)ccc1n2[C@@H]1CCN(C(C)C)C1 [Example 263, (S)-4-ethyl-8-fluoro-4-hydroxy-11-((R)-1-isopropylpyrrolidin-3-yl)-1H-pyrano[3,4:6,7]indolizino[2,1-b]quinoline-3,6,14 (4H,11H,12H)-trione]	< 20 nM	
CC[C@@]1(O)C(=O)OCc2c1cc1n(c2=O)Cc2c-1c(=O)c1cc(F)ccc1n2[C@@H]1CCN(C2CCC(F)(F)CC2)C1 [Example 267, (S)-11-((R)-1-(4,4-difluorocyclohexyl)pyrrolidin-3-yl)-4-ethyl-8-fluoro-4-hydroxy-1H-pyrano[3,4:6,7]indolizino[2,1-b]quinoline-3,6,14(4H,11H,12H)-trione]	< 20 nM	
CC[C@@]1(O)C(=O)OCc2c1cc1n(c2=O)Cc2c-1c(=O)c1cc(F)ccc1n2[C@@H]1CCN(C2CC3(CCC3)C2)C1 [Example 270, (S)-4-ethyl-8-fluoro-4-hydroxy-11-((R)-1-(spiro[3.3]heptan-2-yl)pyrrolidin-3-yl)-1H-pyrano[3,4:6,7]indolizino[2,1-b] quinoline-3,6,14(4H,11H,12H)-trione]	< 20 nM	
CC[C@@]1(O)C(=O)OCc2c1cc1n(c2=O)Cc2c-1c(=O)c1cc(F)ccc1n2[C@@H]1CCN(C2CC3(CC3)C2)C1 [Example 271, (S)-4-ethyl-8-fluoro-4-hydroxy-11-((R)-1-(spiro[2.3]hexan-5-yl)pyrrolidin-3-yl)-1H-pyrano[3',4':6,7]indolizino[2,1-b]quinoline-3,6,14(4H,11H,12H)-trione]	< 20 nM	
CC[C@@]1(O)C(=O)OCc2c1cc1n(c2=O)Cc2c-1c(=O)c1cc(F)ccc1n2[C@@H]1CCN(C2CC3CC3C2)C1 (stereo partly drawn) [Example 273, (4S)-11-((3R)-1-(bicyclo[3.1.0]hexan-3-yl)pyrrolidin-3-yl)-4-ethyl-8-fluoro-4-hydroxy-1H-pyrano[3',4':6,7]indolizino[2,1-b]quinoline-3,6,14(4H,11H,12H)-trione]	< 20 nM	
CC[C@@]1(O)C(=O)OCc2c1cc1n(c2=O)Cc2c-1c(=O)c1cc(F)ccc1n2[C@@H]1CCN(C2CC2)C1 [Example 274, (4S)-11-((3R)-1-cyclopropylpyrrolidin-3-yl)-4-ethyl-8-fluoro-4-hydroxy-1H-pyrano[3',4':6,7]indolizino[2,1-b]quinoline-3,6,14(4H,11H,12H)-trione]	< 20 nM	
CC[C@@]1(O)C(=O)OCc2c1cc1n(c2=O)Cc2c-1c(=O)c1cc(F)c(F)cc1n2[C@@H]1CCN(C)C1 [Example 277]	< 20 nM	
CC[C@@]1(O)C(=O)OCc2c1cc1n(c2=O)Cc2c-1c(=O)c1cc(F)c(C)cc1n2[C@@H]1CCN(C2CC(F)(F)C2)C1 [Example 280]	< 20 nM	
CC[C@@]1(O)C(=O)OCc2c1cc1n(c2=O)Cc2c-1c(=O)c1cc(F)c(Cl)cc1n2[C@@H]1CCN(C2CCC2)C1 [Example 282]	< 20 nM	
CC[C@@]1(O)C(=O)OCc2c1cc1n(c2=O)Cc2c-1c(=O)c1cc(F)c(Cl)cc1n2[C@@H]1CCN(C)C1 [Example 283]	< 20 nM	
CC[C@@]1(O)C(=O)OCc2c1cc1n(c2=O)Cc2c-1c(=O)c1cc(F)c(CO)cc1n2C1CC2(CCC2)C1 [Example 312]	< 20 nM	
CC[C@@]1(O)C(=O)OCc2c1cc1n(c2=O)Cc2c-1c(=O)c1cc(F)c(CC(C)O)cc1n2C1CCC(C)(C)CC1 (some centres unmarked) [Example 317]	< 20 nM	
CCC1(O)C(=O)OCc2c1cc1n(c2=O)Cc2c-1c(=O)c1cc(F)c(CO)cc1n2C12CC(C1)C2 (centres unmarked) [Example 327]	< 20 nM	
CC[C@@]1(O)C(=O)OCc2c1cc1n(c2=O)Cc2c-1c(=O)c1cc(F)c(N)cc1n2-c1cc(C)cc(C)c1 [Example 350]	< 20 nM	
CC[C@@]1(O)C(=O)OCc2c1cc1n(c2=O)Cc2c-1c(=O)c1cc(F)c(N)cc1n2C1CC2(CCC2)C1 [Example 358]	< 20 nM	
CC[C@@]1(O)C(=O)OCc2c1cc1n(c2=O)Cc2c-1c(=O)c1cc(F)c(N)cc1n2C12CC(C1)C2 [Example 359]	< 20 nM	
CC[C@@]1(O)C(=O)OCc2c1cc1n(c2=O)Cc2c-1c(=O)c1cc(F)ccc1n2[C@@H]1CCCN(C2CCCC2)C1 [Example 370]	< 20 nM	
CC[C@@]1(O)C(=O)OCc2c1cc1n(c2=O)Cc2c-1c(=O)c1cc(F)ccc1n2[C@H]1CCCN(C2CC(F)(F)C2)C1 [Example 372]	< 20 nM	
CC[C@@]1(O)C(=O)OCc2c1cc1n(c2=O)Cc2c-1c(=O)c1cc(F)ccc1n2C[C@H]1CCN(C2CC(F)(F)C2)C1 [Example 402]	< 20 nM	
CC[C@@]1(O)C(=O)OCc2c1cc1n(c2=O)Cc2c-1c(=O)c1cc(F)ccc1n2C[C@H]1CCN(C(C)C)C1 [Example 404]	< 20 nM	
